Measured values: the NIST ThermoML archive (doi:10.1021/je049691v)
± gives the expanded uncertainty stated by the source.

Settings: 101.33 kPa, Liquid, Vibrating tube method

mass density (297.15 K) | mass density (298.15 K) | Structure (SMILES)
1012.94 ± 0.13 kg/m3 |  | NCCO [2-aminoethan-1-ol]
 | 786.58 ± 0.13 kg/m3 | CO [methanol]
